Laboratory results reported in US11008340B2, “Modulators of ROR-gamma” (Vitae Pharmaceuticals, LLC, priority 2015, dated 2021).
Like-named read-outs stand apart in the source and are kept apart here.

Key:
[1] = target: T1, full-length RORγt in Jurkat cells (Homo sapiens, UniProt P51449); assay: RORγt 5×RORE Assay in Jurkat Cells (Assay 2); type: cell-based; conditions: 5×RORE luciferase reporter
T1 construct: transcriptional activity of the full-length RORγt in Jurkat cells; host or cells: Jurkat cells (ATCC TIB-152)
T1 sequence (P51449 1-497 isoform P51449-2): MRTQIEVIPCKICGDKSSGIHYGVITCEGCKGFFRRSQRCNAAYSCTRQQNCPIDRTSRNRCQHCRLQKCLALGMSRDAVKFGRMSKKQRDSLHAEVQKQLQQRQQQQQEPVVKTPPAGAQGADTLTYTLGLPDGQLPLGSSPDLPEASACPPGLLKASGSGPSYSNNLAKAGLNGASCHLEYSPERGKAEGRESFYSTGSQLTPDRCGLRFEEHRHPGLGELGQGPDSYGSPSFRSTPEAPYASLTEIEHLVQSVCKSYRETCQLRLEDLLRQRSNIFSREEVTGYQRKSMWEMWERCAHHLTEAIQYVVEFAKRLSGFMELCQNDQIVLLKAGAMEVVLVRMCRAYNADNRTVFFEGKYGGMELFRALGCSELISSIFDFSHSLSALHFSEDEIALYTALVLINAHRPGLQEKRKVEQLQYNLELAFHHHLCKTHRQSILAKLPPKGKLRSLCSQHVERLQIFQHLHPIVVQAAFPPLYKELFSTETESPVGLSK
Method in brief: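 Inverse agonism measured as reduced NanoGlo signal from secreted NanoLuc in conditioned supernatant after 16-18 hrs compound exposure (37° C, 0.1% DMSO). Reporter: 5×RORE-driven secNluc, co-transfected with full-length RORγt into Jurkat cells cultured in delipidated-FBS, phenol-red-free RPMI.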

[2] = target: T2, recombinant RORγ Ligand Binding Domain (LBD) protein (Homo sapiens, UniProt P51449); assay: Radio-Ligand RORγ Binding Assay (Assay 1); conditions: radio-ligand competition, RORγ LBD, read-out: Avg ROR Bind Ki
T2 construct: 6×His; GST
T2 sequence (P51449 269-508 limits assumed): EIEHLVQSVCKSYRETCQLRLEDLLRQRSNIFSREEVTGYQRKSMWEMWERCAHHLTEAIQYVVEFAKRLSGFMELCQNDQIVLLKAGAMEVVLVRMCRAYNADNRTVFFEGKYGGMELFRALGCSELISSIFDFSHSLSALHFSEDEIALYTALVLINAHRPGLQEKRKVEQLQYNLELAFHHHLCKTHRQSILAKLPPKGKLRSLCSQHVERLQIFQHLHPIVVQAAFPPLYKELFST
Method in brief: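 Cell-free SPA competition between compound and 25-hydroxy[26,27-^3H]-cholesterol for 6×His-GST-tagged RORγ LBD in 50 mM HEPES pH 7.4 with NaCl, MgCl2, glycerol, CHAPS, octylglucoside and DTT. Mix was shaken 20 min, held 10 min at rt, then read after poly-Lys YSi beads. IC50 came from a four-parameter fit, and Ki from radioligand KD.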

[3] = Table 20, read-out: Avg ROR γt/5x IC5
[4] = 25-hydroxy [26,27-3H]-cholesterol
[5] = head without unit (Tables 15, 17), read-out: Avg ROR γt/5x IC50
[6] = head without unit (Tables 15, 17)

SMILES | IC50 [1, 3] | Ki [2, 4] | IC50 ([1]; read-out: Avg ROR γt/5x IC50) | IC50 [1, 5] | Ki [2, 6]
CCS(=O)(=O)c1ccc(CNC(=O)c2ccc3c(c2)CN(Cc2ccc(C#N)cc2)C[C@@H]3C(C)C)cc1 (single isomer, unassigned) [Hy7-28.2] | < 100 nM | < 100 nM |  |  | 
CCS(=O)(=O)c1ccc(CNC(=O)c2sc3nc(C)nc(OCc4ccc(C(F)(F)F)cc4)c3c2C)cc1 [Hy6-1, N-(4-(ethylsulfonyl)benzyl)-2,5-dimethyl-4-((4-(trifluoromethyl)benzyl)oxy)thieno[2,3-d]pyrimidine-6-carboxamide] |  | < 100 nM | 100 to 1000 nM |  | 
CCOC(=O)c1cnc(N2CCc3cc(C(=O)NCc4ccc(S(=O)(=O)CC)cc4)ccc3C2C(C)C)nc1C(F)(F)F (racemic) [Hy2A-5, ethyl 2-(6-((4-(ethylsulfonyl)benzyl)carbamoyl)-1-isopropyl-3,4-dihydroisoquinolin-2(1H)-yl)-4-(trifluoromethyl)pyrimidine-5-carboxylate] |  | 100 to 1000 nM | 100 to 1000 nM |  | 
CCS(=O)(=O)c1ccc(CNC(=O)c2ccc3c(OC4CCC(C(F)(F)F)CC4)nccc3c2)cc1 (single isomer, unassigned) [Hy1A-3.1, N-(4-(ethylsulfonyl)benzyl)-1-(((1s,4s)-4-(trifluoromethyl)cyclohexyl)oxy)isoquinoline-6-carboxamide] |  | < 100 nM | > 1000 nM |  | 
CCS(=O)(=O)c1ccc([C@H](CO)NC(=O)c2ccc3c(OC[C@H]4CC[C@H](C(F)(F)F)CC4)nc(C4CC4)cc3c2)cc1 [Hy1A-21, 3-cyclopropyl-N-((R)-1-(4-(ethylsulfonyl)phenyl)-2-hydroxyethyl)-1-(((1r,4R)-4-(trifluoromethyl)cyclohexyl)methoxy)isoquinoline-6-carboxamide] |  | < 100 nM | < 100 nM |  | 
CCS(=O)(=O)c1ccc([C@H](CO)NC(=O)c2ccc3c(OC4CCN(CC(F)(F)F)CC4)nc(C)cc3c2)cc1 [Hy1A-17, (R)-N-(1-(4-(ethylsulfonyl)phenyl)-2-hydroxyethyl)-3-methyl-1-((1-(2,2,2-trifluoroethyl)piperidin-4-yl)oxy)isoquinoline-6-carboxamide] |  | < 100 nM | > 1000 nM |  | 
CCS(=O)(=O)c1ccc(CNC(=O)c2ccc3c(c2)CCN(Cc2ccc(C#N)cc2)C3C(C)C)cc1 (racemic) [Hy2A-14, 2-(4-cyanobenzyl)-N-(4-(ethylsulfonyl)benzyl)-1-isopropyl-1,2,3,4-tetrahydroisoquinoline-6-carboxamide] |  | < 100 nM | < 100 nM |  | 
CCS(=O)(=O)c1ccc(CNC(=O)c2cnc3c(C4CC4)n(C[C@H]4CC[C@H](C(F)(F)F)CC4)nc3c2)cc1 [Hy3B-2, 3-cyclopropyl-N-(4-(ethylsulfonyl)benzyl)-2-(((1r,4r)-4-(trifluoromethyl)cyclohexyl)methyl)-2H-pyrazolo[4,3-b]pyridine-6-carboxamide] |  | < 100 nM | < 100 nM |  | 
CCS(=O)(=O)c1ccc([C@H](CO)NC(=O)c2ccc3c(C4CC4)n(C[C@H]4CC[C@H](C(F)(F)F)CC4)nc3c2)cc1 [Hy3A-1, 3-cyclopropyl-N-((R)-1-(4-(ethylsulfonyl)phenyl)-2-hydroxyethyl)-2-(((1r,4R)-4-(trifluoromethyl)cyclohexyl)methyl)-2H-indazole-6-carboxamide] |  | < 100 nM | < 100 nM |  | 
CCS(=O)(=O)c1ccc(CNC(=O)c2ccc3c(c2)CN(Cc2ccc(Cl)cc2)C[C@H]3C(C)C)cc1 (single isomer, unassigned) [Hy7-29.1] | > 1000 nM | < 100 nM |  |  | 
CCS(=O)(=O)c1ccc(CNC(=O)c2ccc3c(c2)CN(c2ncc(F)cn2)C[C@H]3C(C)C)cc1 (single isomer, unassigned) [Hy7-1.1] | > 1000 nM | < 100 nM |  |  | 
CC[C@H]1CN(c2ccc(C(F)(F)F)cn2)Cc2cc(C(=O)NCc3ccc(S(=O)(=O)CC)cc3)ccc21 (single isomer, unassigned) [Hy7-8.2] | 100 to 1000 nM | < 100 nM |  |  | 
CCS(=O)(=O)c1ccc(CNC(=O)c2ccc3c(c2)CCN(Cc2ccc(OC(F)F)nc2)[C@H]3C(C)C)cc1 (single isomer, unassigned) [Hy2A-25.1] |  | < 100 nM | < 100 nM |  | 
CC[C@@H]1CN(c2ncc(-c3cccc(OC)n3)cn2)Cc2cc(C(=O)NCc3ccc(S(=O)(=O)CC)cc3)ccc21 (single isomer, unassigned) [Hy7-20.1] | < 100 nM | < 100 nM |  |  | 
CCS(=O)(=O)c1ccc(CNC(=O)c2ccc3c(c2)CN(c2ncc(C(F)(F)F)cn2)C[C@H]3C(F)(F)F)cc1 (single isomer, unassigned) [Hy7-36.1] | < 100 nM | < 100 nM |  |  | 
CCS(=O)(=O)c1ccc([C@H](CO)NC(=O)c2cc3ccnc(OC[C@H]4CC[C@H](C(F)(F)F)CC4)c3n2C)cc1 [Hy4-2, N-((R)-1-(4-(ethylsulfonyl)phenyl)-2-hydroxyethyl)-1-methyl-7-(((1r,4R)-4-(trifluoromethyl)cyclohexyl)methoxy)-1H-pyrrolo[2,3-c]pyridine-2-carboxamide] |  |  |  | < 100 nM | < 100 nM
CCS(=O)(=O)c1ccc([C@H](CO)NC(=O)c2ccc3c(OCC4CCN(CC(F)(F)F)CC4)nc(C)cc3c2)cc1 [Hy1A-19, (R)-N-(1-(4-(ethylsulfonyl)phenyl)-2-hydroxyethyl)-3-methyl-1-((1-(2,2,2-trifluoroethyl)piperidin-4-yl)methoxy)isoquinoline-6-carboxamide] |  | < 100 nM | 100 to 1000 nM |  | 
CCS(=O)(=O)c1ccc([C@H](CO)NC(=O)c2cnc3c(C4CC4)n(C[C@H]4CC[C@H](C(F)(F)F)CC4)nc3c2)cc1 [Hy3B-1, 3-cyclopropyl-N-((R)-1-(4-(ethylsulfonyl)phenyl)-2-hydroxyethyl)-2-(((1r,4R)-4-(trifluoromethyl)cyclohexyl)methyl)-2H-pyrazolo[4,3-b]pyridine-6-carboxamide] |  | < 100 nM | < 100 nM |  | 
CCS(=O)(=O)c1ccc(CNC(=O)c2ccc3c(c2)CCN(CC2CCN(C(=O)OC)CC2)[C@H]3C(C)C)cc1 [Hy2A-24, methyl (S)-4-((6-((4-(ethylsulfonyl)benzyl)carbamoyl)-1-isopropyl-3,4-dihydroisoquinolin-2(1H)-yl)methyl)piperidine-1-carboxylate] |  | 100 to 1000 nM | 100 to 1000 nM |  | 
CCS(=O)(=O)c1ccc(C(C)NC(=O)c2ccc3c(c2)CCN(Cc2cnc(C)cn2)C3C(C)C)cc1 (racemic) [Hy2A-18, N-(1-(4-(ethylsulfonyl)phenyl)ethyl)-1-isopropyl-2-((5-methylpyrazin-2-yl)methyl)-1,2,3,4-tetrahydroisoquinoline-6-carboxamide] |  | < 100 nM | 100 to 1000 nM |  | 
CCC1c2ccc(C(=O)NCc3ccc(S(=O)(=O)CC)cc3)cc2CCN1CC1CCC(C(F)(F)F)CC1 (single isomer, unassigned) [Hy2A-27] |  | < 100 nM | < 100 nM |  | 
CCS(=O)(=O)c1ccc(CNC(=O)c2ccc3c(c2)CCN(Cc2ccc(Cl)cc2)C3C)cc1 (racemic) [Hy2A-11, 2-(4-chlorobenzyl)-N-(4-(ethylsulfonyl)benzyl)-1-methyl-1,2,3,4-tetrahydroisoquinoline-6-carboxamide] |  | < 100 nM | 100 to 1000 nM |  | 
CCS(=O)(=O)c1ccc([C@H](CO)NC(=O)c2ccc3c(OC[C@H]4CC[C@H](C(F)(F)F)CC4)nc(C)cc3c2)cc1 [Hy1A-10, N-((R)-1-(4-(ethylsulfonyl)phenyl)-2-hydroxyethyl)-3-methyl-1-(((1r,4R)-4-(trifluoromethyl)cyclohexyl)methoxy)isoquinoline-6-carboxamide] |  | < 100 nM | < 100 nM |  | 
CCOc1cnc(N2Cc3cc(C(=O)NCc4ccc(S(=O)(=O)CC)cc4)ccc3[C@H](C(C)C)C2)nc1 (single isomer, unassigned) [Hy7-5.1] | 100 to 1000 nM | < 100 nM |  |  | 
CCS(=O)(=O)c1ccc(CNC(=O)c2ccc3c(c2)C(C)(C)CN(Cc2ccc(C#N)cc2)C3C(C)C)cc1 (single isomer, unassigned) [Hy2A-23.2] |  | < 100 nM | 100 to 1000 nM |  | 
CCS(=O)(=O)c1ccc(CNC(=O)c2cnc3c(c2)CCN(Cc2ccc(Cl)cc2)C3C(C)C)cc1 (single isomer, unassigned) [Hy2B-8.1] |  |  |  | 100 to 1000 nM | < 100 nM
